Reference: US20060223874A1, “Heterocyclic reverse transcriptase inhibitors” (Roche Palo Alto LLC, priority 2005, published 2006)

Tests used:
Wild Type HIV-RT = Wild Type HIV-RT (Human immunodeficiency virus type 1 group M subtype B, UniProt P03366); assay: HIV Reverse Transcriptase Assay: Inhibitor IC50 Determination; type: biochemical; details: purified recombinant HIV-1 RT, poly(rA)/oligo(dT)16 template-primer, 37° C. for 30 min
Method: HIV Reverse Transcriptase Assay: Inhibitor IC50 Determination
HIV-1 RT assay was carried out in 96-well Millipore MultiScreen MADVNOB50 plates using purified recombinant enzyme and a poly(rA)/oligo(dT)16 template-primer in a total volume of 50 μL. The assay constituents were 50 mM Tris/HCl, 50 mM NaCl, 1 mM EDTA, 6 mM MgCl2, 5 μM dTTP, 0.15 μCi [^3H] dTTP, 5 μg/ml poly (rA) pre annealed to 2.5 μg/ml oligo (dT)16 and a range of inhibitor concentrations in a final concentration of 10% DMSO. Reactions were initiated by adding 4 nM HIV-1 RT and after incubation at 37° C. for 30 min, they were stopped by the addition of 50 μl ice cold 20% TCA and allowed to precipitate at 4° C. for 30 min. The precipitates were collected by applying vacuum to the plate and sequentially washing with 3×200 μl of 10% TCA and 2×200 μl 70% ethanol. Finally, the plates were dried and radioactivity counted in a Packard TopCounter after the addition of 25 μl scintillation fluid per well. IC50's were calculated by plotting % inhibition versus log10 inhibitor concentrations. (TABLE 2)

SMILES | IC50 (Wild Type HIV-RT) [µM] | melting point [°C]
COc1ccc(Cc2n[nH]c(=O)n2C)c(F)c1Oc1cc(C#N)cc(C(F)F)c1 [Compound I-2, 3-Difluoromethyl-5-[2-fluoro-6-methoxy-3-(4-methyl-5-oxo-4,5-dihydro-1H-[1,2,4]triazol-3-ylmethyl)-phenoxy]-benzonitrile] | 0.0129 | 
COc1ccc(Cc2n[nH]c(=O)n2C)c(F)c1Oc1cc(Cl)cc(C#N)c1 [Compound I-1, 3-chloro-5-[2-fluoro-6-methoxy-3-(4-methyl-5-oxo-4,5-dihydro-1H-[1,2,4]triazol-3-ylmethyl)-phenoxy]-benzonitrile] | 0.0456 | 219.1 to 220.1
